# Tests used:
# Assay in all cases: KinomeScan kinase panel, single concentration 10 µM
# Assay type in all cases: binding
# KinomeScan kinase panel [1] = target: T1, KinomeScan kinase panel (Homo sapiens, UniProt P00533, L858R); conditions: EGFR(L858R), 10 µM
# T1 construct: purchased DiscoveRx (KinomeScan)
# KinomeScan kinase panel [2] = target: T2, KinomeScan kinase panel (Homo sapiens, UniProt Q8IVH8); conditions: MAP4K3, 10 µM
# T2 construct: purchased DiscoveRx (KinomeScan)
# T2 sequence (Q8IVH8 1-894): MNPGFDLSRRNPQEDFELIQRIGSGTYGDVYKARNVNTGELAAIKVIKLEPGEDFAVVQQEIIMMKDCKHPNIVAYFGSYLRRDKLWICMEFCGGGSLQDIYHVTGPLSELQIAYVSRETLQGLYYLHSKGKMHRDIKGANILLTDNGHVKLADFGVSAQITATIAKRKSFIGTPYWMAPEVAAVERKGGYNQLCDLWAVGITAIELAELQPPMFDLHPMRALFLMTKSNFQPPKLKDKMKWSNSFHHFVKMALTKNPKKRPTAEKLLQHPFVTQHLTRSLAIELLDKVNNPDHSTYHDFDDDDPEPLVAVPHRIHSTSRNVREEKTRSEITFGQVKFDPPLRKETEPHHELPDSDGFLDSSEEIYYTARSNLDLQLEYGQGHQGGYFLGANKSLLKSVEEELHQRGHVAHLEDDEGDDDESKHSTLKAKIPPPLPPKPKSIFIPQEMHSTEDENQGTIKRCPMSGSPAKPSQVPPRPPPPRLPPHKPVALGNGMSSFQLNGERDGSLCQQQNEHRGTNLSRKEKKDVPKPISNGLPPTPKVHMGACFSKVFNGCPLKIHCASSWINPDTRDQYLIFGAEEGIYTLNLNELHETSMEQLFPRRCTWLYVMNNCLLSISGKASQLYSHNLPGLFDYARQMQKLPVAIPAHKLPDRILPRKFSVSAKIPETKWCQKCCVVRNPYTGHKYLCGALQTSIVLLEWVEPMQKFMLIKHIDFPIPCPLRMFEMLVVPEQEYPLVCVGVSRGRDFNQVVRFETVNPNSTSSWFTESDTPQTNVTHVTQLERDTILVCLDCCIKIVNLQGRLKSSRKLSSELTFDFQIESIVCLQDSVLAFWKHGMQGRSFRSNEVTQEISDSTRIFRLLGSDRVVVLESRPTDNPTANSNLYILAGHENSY
# KinomeScan kinase panel [3] = target: T3, KinomeScan kinase panel (Homo sapiens, UniProt Q8NI60); conditions: ADCK3, 10 µM; read-out: score (%)
# T3 construct: purchased DiscoveRx (KinomeScan)
# T3 sequence (Q8NI60 163-647): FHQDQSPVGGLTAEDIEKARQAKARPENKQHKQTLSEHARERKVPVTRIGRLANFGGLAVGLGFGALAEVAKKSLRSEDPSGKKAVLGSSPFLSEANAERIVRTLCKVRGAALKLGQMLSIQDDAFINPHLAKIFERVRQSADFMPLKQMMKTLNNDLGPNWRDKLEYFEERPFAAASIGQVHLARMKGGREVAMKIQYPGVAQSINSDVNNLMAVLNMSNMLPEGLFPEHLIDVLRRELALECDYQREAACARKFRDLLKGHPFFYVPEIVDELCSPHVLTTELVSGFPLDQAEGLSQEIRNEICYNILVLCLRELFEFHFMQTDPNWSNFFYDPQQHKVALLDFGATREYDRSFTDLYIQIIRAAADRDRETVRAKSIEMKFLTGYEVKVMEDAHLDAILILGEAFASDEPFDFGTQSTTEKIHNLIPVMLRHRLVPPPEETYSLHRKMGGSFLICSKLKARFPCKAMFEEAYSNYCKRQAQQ
# KinomeScan kinase panel [4] = target: T4, KinomeScan kinase panel (Homo sapiens, UniProt Q8NEV4); conditions: MYO3A, 10 µM; read-out: score (%)
# T4 construct: purchased DiscoveRx (KinomeScan)
# T4 sequence (Q8NEV4 whole entry): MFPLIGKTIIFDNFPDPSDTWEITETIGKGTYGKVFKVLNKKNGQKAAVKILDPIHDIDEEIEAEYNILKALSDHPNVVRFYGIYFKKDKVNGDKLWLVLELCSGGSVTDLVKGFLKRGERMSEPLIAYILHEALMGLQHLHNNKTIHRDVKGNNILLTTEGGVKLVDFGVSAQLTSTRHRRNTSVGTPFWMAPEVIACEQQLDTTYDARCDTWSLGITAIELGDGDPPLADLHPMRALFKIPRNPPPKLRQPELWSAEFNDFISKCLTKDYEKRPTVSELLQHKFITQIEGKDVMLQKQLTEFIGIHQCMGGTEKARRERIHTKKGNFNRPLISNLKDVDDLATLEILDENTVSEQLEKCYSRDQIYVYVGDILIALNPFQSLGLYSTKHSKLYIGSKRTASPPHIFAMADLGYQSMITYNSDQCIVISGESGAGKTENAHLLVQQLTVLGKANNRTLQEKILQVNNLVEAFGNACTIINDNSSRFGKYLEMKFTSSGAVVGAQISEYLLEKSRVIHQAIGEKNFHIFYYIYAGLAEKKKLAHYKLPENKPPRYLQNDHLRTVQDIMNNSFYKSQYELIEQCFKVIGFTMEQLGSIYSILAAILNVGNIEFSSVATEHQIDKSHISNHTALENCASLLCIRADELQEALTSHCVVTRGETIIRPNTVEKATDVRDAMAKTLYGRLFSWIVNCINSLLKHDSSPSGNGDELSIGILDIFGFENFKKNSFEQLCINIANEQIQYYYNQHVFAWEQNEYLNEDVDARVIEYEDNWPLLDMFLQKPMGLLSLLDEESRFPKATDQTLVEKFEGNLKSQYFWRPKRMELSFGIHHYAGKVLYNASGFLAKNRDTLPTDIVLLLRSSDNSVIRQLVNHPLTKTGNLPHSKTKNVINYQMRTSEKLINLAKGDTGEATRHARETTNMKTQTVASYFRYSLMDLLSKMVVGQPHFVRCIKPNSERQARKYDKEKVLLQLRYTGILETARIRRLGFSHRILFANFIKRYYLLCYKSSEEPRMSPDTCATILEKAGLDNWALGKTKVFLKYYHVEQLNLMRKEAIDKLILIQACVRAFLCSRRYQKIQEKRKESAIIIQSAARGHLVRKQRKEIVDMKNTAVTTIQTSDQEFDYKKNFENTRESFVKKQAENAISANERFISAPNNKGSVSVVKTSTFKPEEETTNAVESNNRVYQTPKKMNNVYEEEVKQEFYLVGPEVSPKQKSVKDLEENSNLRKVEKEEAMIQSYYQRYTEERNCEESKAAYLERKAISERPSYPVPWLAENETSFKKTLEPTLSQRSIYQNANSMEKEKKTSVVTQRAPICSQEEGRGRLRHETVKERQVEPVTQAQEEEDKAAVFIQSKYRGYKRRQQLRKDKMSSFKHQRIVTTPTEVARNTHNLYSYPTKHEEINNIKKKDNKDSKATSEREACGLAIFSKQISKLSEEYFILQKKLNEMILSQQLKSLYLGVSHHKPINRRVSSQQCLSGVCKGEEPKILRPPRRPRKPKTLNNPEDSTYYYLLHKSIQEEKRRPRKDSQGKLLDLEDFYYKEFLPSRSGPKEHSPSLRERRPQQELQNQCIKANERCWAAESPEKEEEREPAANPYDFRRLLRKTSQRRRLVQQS
# KinomeScan kinase panel [5] = target: T5, KinomeScan kinase panel (Homo sapiens, UniProt O96013); conditions: PAK4, 10 µM; read-out: score (%)
# T5 construct: purchased DiscoveRx (KinomeScan)
# T5 sequence (O96013 whole entry): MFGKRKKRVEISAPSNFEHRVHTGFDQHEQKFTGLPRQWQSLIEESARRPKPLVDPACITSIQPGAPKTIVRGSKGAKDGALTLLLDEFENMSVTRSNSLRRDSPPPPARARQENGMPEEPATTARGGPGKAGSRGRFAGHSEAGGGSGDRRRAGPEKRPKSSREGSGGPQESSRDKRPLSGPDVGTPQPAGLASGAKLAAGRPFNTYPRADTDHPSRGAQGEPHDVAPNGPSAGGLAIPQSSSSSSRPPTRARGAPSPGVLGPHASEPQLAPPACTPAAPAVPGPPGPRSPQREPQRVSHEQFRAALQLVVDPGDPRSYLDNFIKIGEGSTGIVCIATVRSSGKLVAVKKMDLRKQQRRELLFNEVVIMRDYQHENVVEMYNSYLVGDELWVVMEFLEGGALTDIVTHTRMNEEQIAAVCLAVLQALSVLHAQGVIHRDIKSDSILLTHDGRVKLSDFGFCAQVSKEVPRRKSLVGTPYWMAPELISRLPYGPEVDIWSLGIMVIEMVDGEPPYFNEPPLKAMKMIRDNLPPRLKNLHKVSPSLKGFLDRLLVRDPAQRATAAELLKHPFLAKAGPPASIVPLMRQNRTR
# KinomeScan kinase panel [6] = target: T6, KinomeScan kinase panel (Homo sapiens, UniProt Q16832); conditions: DDR2, 10 µM; read-out: score (%)
# T6 construct: purchased DiscoveRx (KinomeScan)
# T6 sequence (Q16832 22-855): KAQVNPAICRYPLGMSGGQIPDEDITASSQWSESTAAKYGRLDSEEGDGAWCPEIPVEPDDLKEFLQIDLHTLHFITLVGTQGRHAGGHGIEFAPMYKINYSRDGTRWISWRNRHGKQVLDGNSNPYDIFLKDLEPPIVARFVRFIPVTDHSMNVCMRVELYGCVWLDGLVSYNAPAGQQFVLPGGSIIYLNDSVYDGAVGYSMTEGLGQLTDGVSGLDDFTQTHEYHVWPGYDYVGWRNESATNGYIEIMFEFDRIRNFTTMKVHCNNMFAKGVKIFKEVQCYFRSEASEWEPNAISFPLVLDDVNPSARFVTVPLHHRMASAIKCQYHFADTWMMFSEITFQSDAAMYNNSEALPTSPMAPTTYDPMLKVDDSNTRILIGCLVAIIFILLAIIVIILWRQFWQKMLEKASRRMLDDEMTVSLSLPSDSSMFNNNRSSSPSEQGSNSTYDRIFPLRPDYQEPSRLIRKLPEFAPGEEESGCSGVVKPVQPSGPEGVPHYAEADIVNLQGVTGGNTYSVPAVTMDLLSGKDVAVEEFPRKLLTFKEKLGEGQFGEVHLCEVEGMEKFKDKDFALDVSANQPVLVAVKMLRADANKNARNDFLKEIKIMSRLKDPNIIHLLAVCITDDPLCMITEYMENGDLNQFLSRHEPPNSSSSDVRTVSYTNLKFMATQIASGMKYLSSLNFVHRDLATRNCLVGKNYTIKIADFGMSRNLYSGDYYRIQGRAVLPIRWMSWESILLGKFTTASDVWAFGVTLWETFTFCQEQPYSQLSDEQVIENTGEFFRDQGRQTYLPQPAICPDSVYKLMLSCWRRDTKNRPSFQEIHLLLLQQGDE
# T1 sequence (P00533 25-1210 L858R): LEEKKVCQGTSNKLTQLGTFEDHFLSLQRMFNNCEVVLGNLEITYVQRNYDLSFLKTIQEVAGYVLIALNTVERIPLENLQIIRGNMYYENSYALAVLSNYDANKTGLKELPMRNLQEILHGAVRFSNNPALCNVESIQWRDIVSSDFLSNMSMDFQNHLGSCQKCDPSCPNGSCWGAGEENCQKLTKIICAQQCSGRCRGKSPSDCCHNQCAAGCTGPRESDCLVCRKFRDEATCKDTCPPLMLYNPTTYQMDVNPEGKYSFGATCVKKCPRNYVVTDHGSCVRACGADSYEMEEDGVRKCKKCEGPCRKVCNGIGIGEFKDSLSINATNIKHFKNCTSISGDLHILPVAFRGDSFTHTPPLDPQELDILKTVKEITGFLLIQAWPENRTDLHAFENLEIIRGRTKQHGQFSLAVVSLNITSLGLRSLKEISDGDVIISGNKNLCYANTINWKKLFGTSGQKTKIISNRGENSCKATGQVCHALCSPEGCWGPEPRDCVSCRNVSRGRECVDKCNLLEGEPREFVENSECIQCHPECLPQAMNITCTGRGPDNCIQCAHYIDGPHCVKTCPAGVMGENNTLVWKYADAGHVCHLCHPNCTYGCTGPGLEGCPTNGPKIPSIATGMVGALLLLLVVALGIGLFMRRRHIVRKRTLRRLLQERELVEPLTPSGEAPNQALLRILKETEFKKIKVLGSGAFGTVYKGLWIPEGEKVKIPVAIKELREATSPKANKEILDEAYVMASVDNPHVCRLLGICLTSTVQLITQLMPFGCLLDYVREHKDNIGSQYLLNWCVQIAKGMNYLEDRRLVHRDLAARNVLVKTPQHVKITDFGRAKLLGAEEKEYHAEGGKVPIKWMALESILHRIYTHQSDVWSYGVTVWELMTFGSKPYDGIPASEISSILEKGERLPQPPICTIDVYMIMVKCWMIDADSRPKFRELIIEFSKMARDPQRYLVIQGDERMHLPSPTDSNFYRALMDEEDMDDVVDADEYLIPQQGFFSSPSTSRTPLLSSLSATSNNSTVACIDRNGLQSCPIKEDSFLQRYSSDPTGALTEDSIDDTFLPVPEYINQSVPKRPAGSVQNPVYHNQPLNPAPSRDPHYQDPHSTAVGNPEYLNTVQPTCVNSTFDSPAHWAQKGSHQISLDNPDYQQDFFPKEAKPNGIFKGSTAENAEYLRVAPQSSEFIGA
Compound,score (%) (KinomeScan kinase panel [1]),score (%) (KinomeScan kinase panel [2]),remaining binding at 10 µM (KinomeScan kinase panel [3]) [%],remaining binding at 10 µM (KinomeScan kinase panel [4]) [%],remaining binding at 10 µM (KinomeScan kinase panel [5]) [%],remaining binding at 10 µM (KinomeScan kinase panel [6]) [%]
CCN1CCN(Cc2ccc(NC(=O)c3ccc(C)c(NC(=O)c4cncc(-c5cccs5)c4)c3)cc2C(F)(F)F)CC1 [ALW-II-41-27],0.25,20,> 30,17,> 30,12
"CCN1CCN(Cc2ccc(NC(=O)c3ccc(C)c(/C=C/c4cnc5[nH]ccc5c4Cl)c3)cc2C(F)(F)F)CC1 [HG-6-63-01, (E)-3-(2-(4-chloro-1H-pyrrolo[2,3-b]pyridin-5-yl)vinyl)-N-(4-((4-ethylpiperazin-1-yl)methyl)-3-(trifluoromethyl)phenyl)-4-methylbenzamide]",0.4,4.2,> 30,> 30,> 30,0.8
CCN1CCN(Cc2ccc(NC(=O)c3ccc(C)c(C#Cc4cccnc4)c3)cc2C(F)(F)F)CC1 [XMD15-44],4,2.6,> 30,3.2,100,1

# — publication PMC4457528, “Identification of Novel Small Molecule Inhibitors of Oncogenic RET Kinase” (PLoS ONE, 2015)
